Measurements taken from patent publication US20240336654A1, “ANTIMICROBIAL PEPTIDOMIMETICS” (SPEXIS AG, priority 2021, published 2024).
Where a SMILES comes first, the peptide text is derived from it. Bridges are numbered along the chain shown (N, C = ends). [ ]: non-standard residue; d: D form. Pro(4,4-F2) = O=C(O)[C@@H]1CC(F)(F)CN1; Hyp = O=C(O)[C@@H]1C[C@@H](O)CN1; Pen = CC(C)(S)[C@H](N)C(=O)O; ΔPro = O=C(O)[C@@H]1C=CCN1; dDab = NCC[C@@H](N)C(=O)O; Dab = NCC[C@H](N)C(=O)O

Tests used:
Type in all cases: cell-based
[1] = system: Escherichia coli ATCC 25922; conditions: ATCC 25922
Protocol: (§1) Lyophilized peptides were weighed on a Microbalance (Mettler MT5) and dissolved in sterile water to a final concentration of 1 mg/mL. Stock solutions were kept at +4° C., light protected.
(§2) The selective antimicrobial activities of the peptides were determined in 96-well plates (Greiner, polystyrene) by the standard CLSI broth microdilution method (Clinical and Laboratory Standards Institute. Methods for Dilution Antimicrobial Susceptibility Tests for Bacteria That Grow Aerobically; Approved Standard-Ninth Edition. CLSI document M07-A9 (ISBN 1-56238-783-9 [Print]; ISBN 1-56238-784-7 [Electronic]). Clinical and Laboratory Standards Institute, 950 West Valley Road, Suite 2500, Wayne, Pennsylvania 19087, USA, 2012) with slight modifications.
(§3) Colonies of the microorganisms were diluted in saline (0.85%, NaCl) and adjusted using a McFarland reader (bioMérieux SA, Marcy-l'Etoile, France) to 0.5 McFarland standard. Subsequently, the bacterial suspension was diluted in Mueller-Hinton II (MHII, cation adjusted) broth to give approximately 5×10^5 colony forming units (CFU/mL).
(§4) Inocula of the microorganisms were diluted into Mueller-Hinton II (MH, cation adjusted) broth and compared with a 0.5 McFarland standard to give appr. 10^6 colony forming units (CFU)/mL. Aliquots (90 μl) of inoculate were added to 10 μl of water+P-80 (Polysorbate 80, 0.002% final concentration) containing the peptide in serial two-fold dilutions at 10 fold final concentration. The following microorganisms were used to determine antibiotic selectivity of the peptides: Escherichia coli ATCC 25922, Escherichia coli MCR-1 Af 45 and Klebsiella pneumoniae SSI3010. Antimicrobial activities of the peptides were expressed as the minimal inhibitory concentration (MIC) in μg/mL at which no visible growth was observed after 18-20 hours of incubation at 35° C.

[2] = system: Klebsiella pneumoniae SSI3010; conditions: SSI3010
Protocol: as §1, §2, §3, §4

[3] = system: Escherichia coli MCR-1 Af 45; conditions: MCR-1 Af 45
Protocol: as §1, §2, §3, §4

[4] = system: human red blood cells (hRBC); conditions: red cells of human, 1 h, 200 μg/mL
Protocol: Lyophilized peptides were weighed on a Microbalance (Mettler MT5) and dissolved in sterile water to a final concentration of 1 mg/mL. Stock solutions were kept at +4° C., light protected. The peptides were tested for their hemolytic activity against human red blood cells (hRBC). Fresh hRBC were washed three times with phosphate buffered saline (PBS) and centrifuged for 5 min at 3000×g. Compounds (200 μg/mL) were incubated with 20% hRBC (v/v) for 1 h at 37° C. and shaking at 300 rpm. A value of 0% and 100% cell lyses, respectively, was determined by incubation of hRBC in the presence of PBS and 2.5% Triton X-100 in H2O, respectively. The samples were centrifuged, the supernatants were 8-fold diluted in PBS buffer and the optical densities (OD) were measured at 540 nm. The 100% lyses value (OD540H2O) gave an OD540 of approximately 0.5-1.0. Percent hemolysis was calculated as follows: (OD540peptide/OD540H2O)×100%.

Row | Structure (SMILES) | Escherichia coli ATCC 25922 MIC [1] | Klebsiella pneumoniae SSI3010 MIC [2] | Escherichia coli MCR-1 Af45 MIC [3] | Hemolysis at 0.2 g/L [4]
1 | CC[C@H](C)[C@H](NC(=O)[C@@H]1CC(F)(F)CN1C(=O)[C@@H](N)C(C)C)C(=O)N[C@@H]1C(=O)N[C@@H](Cc2ccc(O)cc2)C(=O)N[C@@H]([C@@H](C)O)C(=O)N[C@@H](CC(N)=O)C(=O)N[C@@H](CCCNC(=N)N)C(=O)N[C@@H](CCN)C(=O)N[C@@H]([C@@H](C)O)C(=O)N[C@H](CCN)C(=O)N[C@@H](CCCCN)C(=O)N[C@@H](CCN)C(=O)N[C@@H](CCN)C(=O)N[C@H](C(=O)N[C@@H](Cc2ccc(O)cc2)C(=O)O)CSSC1(C)C [Example 9, Val-Pro(4,4F2)-Ile-Pen-Tyr-Thr-Asn-Arg-Dab-Thr-^DDab-Lys-Dab-Dab-Cys-Tyr] (H-V[Pro(4,4-F2)]I[Pen]YTNR[Dab]T[dDab]K[Dab][Dab]CY-OH; disulfide 4-15) | 0.125 µg/mL | 0.25 µg/mL | 0.0625 µg/mL | <1%
2 | CC[C@H](C)[C@H](NC(=O)[C@@H]1C=CCN1C(=O)[C@@H](N)C(C)C)C(=O)N[C@@H]1C(=O)N[C@@H](Cc2ccc(O)cc2)C(=O)N[C@@H]([C@@H](C)O)C(=O)N[C@@H](CC(N)=O)C(=O)N[C@@H](CCCNC(=N)N)C(=O)N[C@@H](CCN)C(=O)N[C@@H]([C@@H](C)O)C(=O)N[C@H](CCN)C(=O)N[C@@H](CCCCN)C(=O)N[C@@H](CCN)C(=O)N[C@@H](CCN)C(=O)N[C@H](C(=O)N[C@@H](Cc2ccc(O)cc2)C(=O)O)CSSC1(C)C [Example 10, Val-Pro(3,4dehydro)-Ile-Pen-Tyr-Thr-Asn-Arg-Dab-Thr-^DDab-Lys-Dab-Dab-Cys-Tyr] (H-V[ΔPro]I[Pen]YTNR[Dab]T[dDab]K[Dab][Dab]CY-OH; disulfide 4-15) | 0.0625 µg/mL | 0.125 µg/mL | 0.0625 µg/mL | <1%
3 | CC[C@H](C)[C@H](NC(=O)[C@@H]1C[C@@H](O)CN1C(=O)[C@@H](N)C(C)C)C(=O)N[C@H]1CSSC[C@@H](C(=O)N[C@@H](Cc2ccc(O)cc2)C(=O)O)NC(=O)[C@H](CCN)NC(=O)[C@H](CCN)NC(=O)[C@H](CCCCN)NC(=O)[C@@H](CCN)NC(=O)[C@H]([C@@H](C)O)NC(=O)[C@H](CCN)NC(=O)[C@H](CCCNC(=N)N)NC(=O)[C@H](CC(N)=O)NC(=O)[C@H](CO)NC(=O)[C@H](Cc2ccc(O)cc2)NC1=O [Example 11, Val-Hyp-Ile-Cys-Tyr-Ser-Asn-Arg-Dab-Thr-^DDab-Lys-Dab-Dab-Cys-Tyr] (H-V[Hyp]ICYSNR[Dab]T[dDab]K[Dab][Dab]CY-OH; disulfide 4-15) | 0.5 µg/mL | 0.5 µg/mL | 0.25 µg/mL | <1%
4 | CC[C@H](C)[C@H](NC(=O)[C@@H]1C[C@@H](O)CN1C(=O)[C@@H](N)C(C)C)C(=O)N[C@H]1CSSC(C)(C)[C@@H](C(=O)N[C@@H](Cc2ccc(O)cc2)C(=O)O)NC(=O)[C@H](CCN)NC(=O)[C@H](CCN)NC(=O)[C@H](CCCCN)NC(=O)[C@@H](CCN)NC(=O)[C@H]([C@@H](C)O)NC(=O)[C@H](CCN)NC(=O)[C@H](CCCNC(=N)N)NC(=O)[C@H](CC(N)=O)NC(=O)[C@H](CO)NC(=O)[C@H](Cc2ccc(O)cc2)NC1=O [Example 12, Val-Hyp-Ile-Cys-Tyr-Ser-Asn-Arg-Dab-Thr-^DDab-Lys-Dab-Dab-Pen-Tyr] (H-V[Hyp]ICYSNR[Dab]T[dDab]K[Dab][Dab][Pen]Y-OH; disulfide 4-15) | 0.25 µg/mL | 0.5 µg/mL | 0.125 µg/mL | <1%
5 | CC[C@H](C)[C@H](NC(=O)[C@@H]1C[C@@H](O)CN1C(=O)[C@@H](N)C(C)C)C(=O)N[C@@H]1C(=O)N[C@@H](C)C(=O)N[C@@H](CO)C(=O)N[C@@H](CC(N)=O)C(=O)N[C@@H](CCCNC(=N)N)C(=O)N[C@@H](CCN)C(=O)N[C@@H]([C@@H](C)O)C(=O)N[C@H](CCN)C(=O)N[C@@H](CCCCN)C(=O)N[C@@H](CCN)C(=O)N[C@@H](CCN)C(=O)N[C@H](C(=O)N[C@@H](Cc2ccc(O)cc2)C(=O)O)CSSC1(C)C [Example 13, Val-Hyp-Ile-Pen-Ala-Ser-Asn-Arg-Dab-Thr-^DDab-Lys-Dab-Dab-Cys-Tyr] (H-V[Hyp]I[Pen]ASNR[Dab]T[dDab]K[Dab][Dab]CY-OH; disulfide 4-15) | 0.5 µg/mL | 0.5 µg/mL | 0.125 µg/mL | <1%
6 | CC[C@H](C)[C@H](NC(=O)[C@@H]1C[C@@H](O)CN1C(=O)[C@@H](N)C(C)C)C(=O)N[C@@H]1C(=O)N[C@@H](CO)C(=O)N[C@@H](CO)C(=O)N[C@@H](CC(N)=O)C(=O)N[C@@H](CCCNC(=N)N)C(=O)N[C@@H](CCN)C(=O)N[C@@H]([C@@H](C)O)C(=O)N[C@H](CCN)C(=O)N[C@@H](CCCCN)C(=O)N[C@@H](CCN)C(=O)N[C@@H](CCN)C(=O)N[C@H](C(=O)N[C@@H](Cc2ccc(O)cc2)C(=O)O)CSSC1(C)C [Example 14, Val-Hyp-Ile-Pen-Ser-Ser-Asn-Arg-Dab-Thr-^DDab-Lys-Dab-Dab-Cys-Tyr] (H-V[Hyp]I[Pen]SSNR[Dab]T[dDab]K[Dab][Dab]CY-OH; disulfide 4-15) | 0.5 µg/mL | 0.5 µg/mL | 0.25 µg/mL | <1%
7 | CC[C@H](C)[C@H](NC(=O)[C@@H]1C[C@@H](O)CN1C(=O)[C@@H](N)C(C)C)C(=O)N[C@@H]1C(=O)N[C@@H](Cc2ccc(O)cc2)C(=O)N[C@@H]([C@@H](C)O)C(=O)N[C@@H](CC(N)=O)C(=O)N[C@@H](CCCNC(=N)N)C(=O)N[C@@H](CCN)C(=O)N[C@@H]([C@@H](C)O)C(=O)N[C@H](CCN)C(=O)N[C@@H](CCCCN)C(=O)N[C@@H](CCN)C(=O)N[C@@H](CCN)C(=O)N[C@H](C(=O)N[C@@H](Cc2ccc(O)cc2)C(=O)O)CSSC1(C)C [Example 15, Val-Hyp-Ile-Pen-Tyr-Thr-Asn-Arg-Dab-Thr-^DDab-Lys-Dab-Dab-Cys-Tyr] (H-V[Hyp]I[Pen]YTNR[Dab]T[dDab]K[Dab][Dab]CY-OH; disulfide 4-15) | 0.0625 µg/mL | 0.125 µg/mL | 0.0625 µg/mL | <1%
8 | CC[C@H](C)[C@@H]1NC(=O)[C@H](Cc2ccc(O)cc2)NC(=O)[C@@H](NC(=O)[C@@H](NC(=O)[C@@H]2C[C@@H](O)CN2C(=O)[C@@H](N)C(C)C)[C@@H](C)CC)C(C)(C)SSC[C@@H](C(=O)N[C@@H](Cc2ccc(O)cc2)C(=O)O)NC(=O)[C@H](CCN)NC(=O)[C@H](CCCNC(=N)N)NC(=O)[C@H](CCCCN)NC(=O)[C@@H](CCN)NC(=O)[C@H]([C@@H](C)O)NC(=O)[C@H](CCN)NC(=O)[C@H](CCCNC(=N)N)NC(=O)[C@H](CC(N)=O)NC1=O [Example 16, Val-Hyp-Ile-Pen-Tyr-Ile-Asn-Arg-Dab-Thr-^DDab-Lys-Arg-Dab-Cys-Tyr] (H-V[Hyp]I[Pen]YINR[Dab]T[dDab]KR[Dab]CY-OH; disulfide 4-15) | 0.375 µg/mL | 0.5 µg/mL | 0.25 µg/mL | <1%
